What was measured:
HASMCs = test: Cell proliferation by Ki67 staining in HASMCs; type: cell-based, human; conditions: pifithrin 10 μM
Excerpt: (§1) Tissue sections and cells were stained with primary antibody against Ki67 (Dako Inc.), FGF12 (Abcam), phospho-p53 (p-p53; Cell Signaling Technology), α-smooth muscle actin (α-SMA; Sigma), or SM22α (Abcam) and proper fluorescence-labeled secondary antibody. Nuclei were stained with 4′,6-diamidino-2-phenylindole (DAPI). The stained cells were observed using a fluorescence microscope (Nikon). All images shown are representative of independent three experiments.
(§2) For cell proliferation analysis, cells were inoculated triplicate in a 24-well plate, and cultured in the basal medium supplemented with 50 ng/ml platelet-derived growth factor-BB (PDGF-BB; R&D systems), 100 ng/ml Bone morphogenic protein-4 (BMP-4; R&D systems), or 10% FBS. Cell proliferation was determined by an MTS assay (MTS assay; Promega) or immunofluorescence assay using anti-Ki67 IgG (Dako). Five representative color images were randomly acquired from each sample for quantifying Ki67 stained cells (Ki67+ cells), and the percentage of Ki67+ cells was determined through dividing the mean value of Ki67+ cells by the total number of cells on each image.

HPASMCs = test: Cell proliferation by Ki67 staining in HPASMCs; type: cell-based, human; conditions: pifithrin 10 μM
Excerpt: as §1, §2

[1] = test system: human aortic smooth muscle cells (HASMCs); test: FGF12 expression regulation by PDGF-BB in HASMCs (RT-PCR, immunofluorescence); type: cell-based
Excerpt: as §1
(§3) Total RNA of cells or tissues for reverse transcription-polymerase chain reaction (RT-PCR) was isolated with TRIzol reagent (Invitrogen). Next, cDNA was synthesized from total RNA using primers specific to corresponding genes and a Superscript first-strand synthesis kit (Invitrogen), and was amplified by PCR (30-35 cycles). Glyceraldehyde-3-phosphate dehydrogenase (GAPDH) was used as a loading control. Real-time PCR was performed using a SYBR-Green PCR master mix (Applied biosystems) and the StepOnePlus™ Real Time PCR System (Applied Biosystems). Data were analyzed according to ΔΔCt method, and gene expression values were normalized to GAPDH expression.
(§4) Human aortic vascular smooth muscle cells (HASMCs; ScienCell Research Laboratories) and human pulmonary […] vascular smooth muscle cell (HPASMC, ScienCell Research laboratories) were cultured in smooth muscle growth medium (SMGM, ScienCell Research Laboratories) or basal medium. For a compound inhibitor experiment, HASMCs and HPASMCs were pre-treated with pifithrin (10 μM; Sigma), LY294002 (20 μM; Cell Signaling Technology), PD98059 (50 μM; Cell Signaling Technology), U0 126 (10 μM; Cell Signaling Technology), SB203580 (50 μM; Cell Signaling Technology), and BIRB796 (10 μM; Merck) at 37° C. for 24 hours.

[2] = test system: human pulmonary aortic vascular smooth muscle cells (HPASMCs); test: FGF12 expression regulation by PDGF-BB in HPASMCs (RT-PCR, immunofluorescence); type: cell-based
Excerpt: as §1, §3, §4

FGF12 promoter = test: Luciferase reporter assay with FGF12 promoter; type: cell-based, human; conditions: HASMCs, pGL3-FGF12 reporter, PDGF-BB 50 ng/ml versus removed
Description: For the luciferase reporter assay, approximately 2000 base pairs of the FGF12 5′-UTR were cloned into a firefly luciferase reporter vector (pGL3-phFGF12). HASMCs were co-transfected with an empty vector (pGL3-basic) or pGL3-phFGF12, together with a constitutively active β-galactosidase reporter plasmid as a transfection control. After 48 hours, luciferase and galactosidase activities were analyzed using a luciferase and galactosidase assay kit (Stratagene). The luciferase activity was normalized to galactosidase activity, and expressed as a relative value compared with the luciferase activity measured in HASMCs transfected with pGL3-basic and cultured in a medium containing PDGF-BB (50 ng/ml) for 1 day.

HPASMC = test: FGF12 expression regulation by BMP in HPASMC (RT-PCR, Western blotting); type: cell-based, human; conditions: for FGF12 protein expression / protein expression of vascular smooth muscle cell differentiation markers (α-SMA, SM22α): 30 ng/ml, 48 hours, western blotting; for level of FGF12 mRNA: 48 hours after addition to basal medium (10 and 30 ng/ml), RT-PCR
Description: as §3
For transfection for FGF12 overexpression, an expression vector (pCMV6-Entry having the c-terminal labeled Myc-DDK) encoding a rat homologous gene (Origene) having 100% amino acid homology with human FGF12 cDNA was used. HASMCs and HPASMCs were transfected with pCMV6-FGF12(pFGF12) or pCMV6-Entry (pEntry) control vector using Lipofectamien™ 2000 according to the protocol of the manufacturer, and selected using G418 (Sigma) for 2 weeks. For the inhibition of FGF12, p53 or BMPR2 expression, subconfluent HASMCs were transfected with specific or non-specific small interfering RNA (siRNA; GE Healthcare) using Lipofectamien™ 2000.
Cell and tissue lysates were separated by SDS-PAGE, and protein bands were transferred on blots. Blots were reacted with appropriate primary antibodies such as FGF12 (Abcam), p-p53 (Cell Signaling Technology), p53 (BD Biosciences), α-SMA (Sigma), SM22α (Abcam), SM-MHC, or β-actin (Santa Cruz biotechnology), followed by treatment with horseradish peroxidase-conjugated secondary antibodies.

[3] = 3 hours after PDGF-BB (50 ng/ml) added to basal medium, RT-PCR
[4] = after 24 hours of PDGF-BB stimulation

## pifithrin
HASMCs
  cell proliferation of Ad-FGF12-transfected cells: significantly improving the cell proliferation
HPASMCs
  cell proliferation of Ad-FGF12-transfected cells: significantly improving the cell proliferation

## PDGF-BB: platelet-derived growth factor subunit B homodimer, vascular smooth muscle cell mitogen
[1]; [3]
  mRNA level of FGF12: greatly decreased
[1]; PDGF-BB 50 ng/ml, one day
  expression level of FGF12 (immunofluorescent experiment): decreased
[1]; [4]
  mRNA level of FGF12: further decreased
  mRNA level of the contractible gene SM-HMC: decreased
  mRNA level of the proliferation marker gene CDK1: increased
[2]; [3]
  mRNA level of FGF12: greatly decreased
[2]; PDGF-BB 50 ng/ml, one day
  expression level of FGF12 (immunofluorescent experiment): decreased
[2]; [4]
  mRNA level of FGF12: further decreased
  mRNA level of the contractible gene SM-HMC: decreased
FGF12 promoter
  transcriptional activity of the FGF12 promoter: inhibits the expression of FGF12 at a transcriptional level

B1: BMP-4: Bone morphogenic protein-4 (protein)
chain: SPKHHSQRARKKNKNCRRHSLYVDFSDVGWNDWIVAPPGYQAFYCHGDCPFPLADHLNSTNHAIVQTLVNSVNSSIPKACCVPTELSAISMLYLDEYDKVVLKNYQEMVVEGCGCR
HPASMC
  FGF12 protein expression: increased
  protein expression of vascular smooth muscle cell differentiation markers (α-SMA, SM22α): increased
  level of FGF12 mRNA: significantly increased

B2: BMP-7: bone morphogenetic protein, promotes differentiation and inhibits proliferation of vascular smooth muscle cells (protein, UniProt P18075 293-431, looked up)
Bone morphogenetic protein 7: STGSKQRSQNRSKTPKNQEALRMANVAENSSSDQRQACKKHELYVSFRDLGWQDWIIAPEGYAAYYCEGECAFPLNSYMNATNHAIVQTLVHFINPETVPKPCCAPTQLNAISVLYFDDSSNVILKKYRNMVVRACGCH
HPASMC
  FGF12 protein expression: increased
  protein expression of vascular smooth muscle cell differentiation markers (α-SMA, SM22α): increased
  level of FGF12 mRNA: significantly increased
